Data as given in US20090062326A1, “M3 MUSCARINIC RECEPTOR ANTAGONISTS FOR TREATMENT OF M3 MUSCARINIC RECEPTOR-EXPRESSING TUMORS” (priority 2006, published 2009).
Like-named read-outs stand apart in the source and are kept apart here.

What was measured:
[1] = system: H82 cells; assay: H82 tumors in nude mice receiving nicotine (planned); type: in vivo, mouse; conditions: nicotine 2.0 mg/kg/day by minipump
Procedure: Nude mice are administered H82 cells as described in Example 3. […] Nicotine (nicotine bitartrate, Sigma) is dissolved in water at a concentration to deliver 2.0 mg/kg/day; and will be administered by a second minipump. Tumor volume will be determined weekly as described in the Examples above, and mice euthanized after 4 weeks of drug administration. At sacrifice tumors are removed and weighed. Part of the tumor can be fixed for histologic examination of tumor morphology and part frozen for RNA and protein analyses.

[2] = system: lung, pancreas and esophagus; conditions: nicotine for 3 weeks vs control mice
Procedure: At the end of 3 weeks, bromodeoxy uridine (BrdU) will be injected ip, 50 mg/kg, then 24 hours later mice will be sacrificed and selected tissues removed to measure cell proliferation. Tissues removed will include lung, pancreas and esophagus, tumors of which are associated with smoking. Tissues will be sectioned and BrdU incorporation into cells determined so as to determine the number of replicating cells per section.

[3] = system: H82 SCLC cells; conditions: H82 SCLC cells incubated with nicotine; FIG. 6
Procedure: H82 SCLC cells were incubated with nicotine for the times shown and secretion of ACh into the medium was measured.

[4] = system: SCLC cell line H82; assay: H82 cell proliferation with subtype-selective mAChR antagonists; type: cell-based, human
Procedure: (§1) For in vitro cell proliferation assays, cells were suspended at a concentration of 50,000 cells/ml and pipetted up and down to break up cell clumps. 100 μl cell suspension was added to each well of a 96-well plate. 100 μl darifenacin at concentrations of 2×10^−5, 2×10^−6, 2×10^−7, 2×10^−8, 2×10^−9 M and vehicle control were then added to wells. Every three days, half the volume of the media was changed and at 0, 3, 6, 9 and 12 days, cell number was determined with the Cell-Titer Blue reagent (Promega, Madison Wis.) which measures the production of the fluorescent product of resorufin from resazurin by metabolically active cells.

[5] = system: H82 cells; assay: H82 SCLC tumor growth in nude mice, subcutaneous minipump; type: in vivo, mouse
Procedure: Mice (NU/NU, Charles River Laboratories) were injected with SCLC tumor cells (NCI-H82 cells, American Type Culture Collection (ATCC); Manassas, Va.), treated with drug and tumor growth monitored. The H82 cells express M3 muscarininc receptor (see Song et al., Cancer Res. 63:214-21, 2003). Nude mice, 5-7 weeks old were housed in a pathogen-free room in microisolators with autoclaved bedding, and fed autoclaved rodent chow and water.
H82 cells were first grown in RPMI-1640+ITS (insulin (5 μg/ml), transferrin (5 μg/ml), sodium selenite (5 ng/ml)). Cells were collected, centrifuged and resuspended in fresh RPMI-1640+ITS at a concentration of 5×10^6 cell/0.25 ml. Cells were then mixed with an equal volume of matrigel (BD Biosciences) to give a final concentration of 5×10^6 cell/0.5 ml and 0.5 ml of this cell suspension was then injected subcutaneously into the right flank of each mouse.
(§2) Tumors were allowed to grow for one week, then drug administration was initiated and continued for the next 4 weeks. Drugs were administered by subcutaneously-implanted osmotic minipumps (Alzet model# 2004). Atropine and darifenacin were dissolved in 50% DMSO/50% phosphate-buffered saline. Atropine was delivered at a dose of 10 mg/kg per day; darifenacin (Novartis Pharma AG, Basel, Switzerland) was delivered at doses of 0.3, 1.0 and 3.0 mg/kg per day. Control animals received minipumps filled with 50% DMSO/50% phosphate-buffered saline.
(§3) Tumor volume was determined weekly by measuring with calipers (volume=height×width×depth). Mice were euthanized after 4 weeks of drug administration. 10 animals were used per group. At sacrifice tumors were removed and weighed. Part of the tumor was fixed for histologic examination of tumor morphology and part was frozen for RNA and protein analyses.

[6] = overall animal weight of treated nude mice; type: in vivo, mouse; conditions: darifenacin treatment
Procedure: as §2

[7] = plasma darifenacin concentration in nude mice; type: in vivo, mouse; conditions: s.c. minipump; for concentration at 4 weeks: mouse, plasma, sc
Procedure: FIG. 4 is a bar graph showing the relation of nude mouse darifenacin dose to concentration of darifenacin achieved in mouse blood. Dashed lines show concentration of darifenacin obtained in humans treated with 30 mg extended release darifenacin per day.
as §2
Thus significant reduction in SCLC growth can be achieved at clinically relevant doses of M3 mAChR antagonists.

[8] = system: Akt phosphorylation; assay: Akt phosphorylation in tumors removed from treated mice; type: in vivo, mouse; conditions: tumors removed from darifenacin-treated mice
Procedure: as §3
(§4) ACh content of control tumor samples was 420±110 pmol/g which, corresponds to 4×10^−7 M, assuming uniform distribution in the tumor. These levels of ACh are high enough to increase MAPK phosphorylation.

[9] = system: SCLC cell lines; assay: in vitro cell proliferation assay (Cell-Titer Blue); type: cell-based, human
Procedure: SCLC cell lines (HA-E, SV-E, LV-E, BK-T, HG-E, AD-A, LD-T, H69 (HTB-119), H82 (HTB-175), H146 (HTB 173), H187 (CRL-5804), H524 (CRL-5831), H526 (CRL-5811), H740 (CRL-5840), H841 (CRL-5845), H1048 (CRL-5853), H1105 (CRL-5856), H1417 (CRL-5869), H1694 (CRL-5888). H1836 (CRL-5898), H1876 (CRL-5902), H2029 (CRL-5913), H2195 (CRL-5931), and H2198 (CRL-5933)), were grown in RPMI 1640 medium (Mediatech, Herndon Va.) supplemented with 0-10% fetal bovine serum (Hyclone, Logan, Utah) and ITS (5 μg/ml insulin, 5 μg/ml transferrin, 5 ng/ml sodium selenite (BD Biosciences, San Jose, Calif.)) plus 100 units/ml penicillin, […] streptomycin, and […] amphotericin (Invitrogen, Carlsbad Calif.) at 37° C. in a humidified 5% CO2 atmosphere.
as §1

[10] = system: MAPK phosphorylation; assay: MAPK phosphorylation in tumors removed from treated mice; type: in vivo, mouse; conditions: tumors removed from darifenacin-treated mice
Procedure: as §3, §4

[11] = up to 10^−5 mol/L, nine days of treatment

## CN1CCCC1c1cccnc1 (centres unmarked) [nicotine]
[1]
  effect of nicotine on tumor growth: grow faster
[2]
  replicating cells in tissue (BrdU incorporation): more replicating cells
[3]
  acetylcholine secretion into the medium: stimulates acetylcholine secretion

## Cl.O[Si](CCCN1CCCCC1)(c1ccc(F)cc1)C1CCCCC1 (centres unmarked) [P-F-HHSiD, hexahydro-sila-difenidol hydrochloride, p-fluoro analog]
[4]; 10^−5 mol/L, after nine days
  H82 cell proliferation: significantly reduced cell proliferation

## CN1[C@@H]2CC[C@H]1C[C@@H](OC(=O)C(CO)c1ccccc1)C2 (some centres unmarked) [atropine]
[5]; 10 mg/kg per day s.c. minipump, weeks 1-5, FIG. 5
  tumor growth (tumor weight): do not reduce or inhibit tumor growth

## CCN(CC)CC1CCCCN1CC(=O)N1c2ccccc2C(=O)Nc2cccnc21 (centres unmarked) [AFDX-1116]
[4]; [11]
  H82 cell proliferation: no detectable effect

## O=C(O[C@H]1C[C@H]2CC[C@@H](C1)[N+]21CCCC1)C(O)(c1ccccc1)c1ccccc1 [trospium]
[5]; stated for nonselective antagonists, no dose or test described
  tumor growth: do not reduce or inhibit tumor growth

## NC(=O)C(c1ccccc1)(c1ccccc1)[C@@H]1CCN(CCc2ccc3c(c2)CCO3)C1 [darifenacin, (S)-2-{1-[2-(2,3-dihydrobenzofuran-5-yl)ethyl]-3-pyr-rolidinyl}-2,2-diphenyl-acetamide]
[6]
  overall animal weight: No significant effects
[7]; 3 mg/kg per day, read-out: average plasma darifenacin concentration at which tumor growth was reduced
  concentration at 4 weeks: 9.4 ± 0.3 ng/mL
[7]; FIG. 4, read-out: plasma darifenacin concentrations at which inhibition of tumor growth was achieved
  concentration at 4 weeks: 3 to 10 ng/mL
[7]
  average plasma darifenacin concentration: ~25 nM
  average plasma darifenacin concentration at which tumor growth was reduced: 9.4 ± 0.97 ng/mL
[8]
  Akt phosphorylation in the tumors: no significant effects
[9]; 10 μM darifenacin, H187, H1048, H1836, H1876, H520, FIGS. 1A-E
  cell growth in five SCLC cell lines: responsive
[9]; 20 SCLC cell lines tested
  SCLC cell lines with significantly reduced proliferation: 14 out of 20
[9]; cell lines LV-E, AD-A, L-D-T, H69, H1417, H2198
  proliferation of non-responding cell lines: not affected
[10]
  levels of MAPK phosphorylation in the tumors: significantly decreased
[5]; 0.3, 1.0 and 3.0 mg/kg per day s.c. minipump, weeks 1-5, FIG. 2
  tumor size (volume by calipers): dosewise-reduction
[5]; highest dose of darifenacin
  histology of tumor cells compared to controls: larger in size, with increased-cytoplasm and less nuclear molding
[5]; largest dose (3.0 mg/kg per day), FIG. 2
  inhibition of tumor size, statistics: statistically significant
[5]; tumors removed and weighed at end of 5 weeks, FIG. 3
  tumor weight: significant decrease

## CN1CCN(CC(=O)N2c3ccccc3C(=O)Nc3cccnc32)CC1 [pirenzepine]
[4]; [11]
  H82 cell proliferation: no detectable effect

## C[N+]1(C)CCC(OC(=O)C(c2ccccc2)c2ccccc2)CC1.[I-] [4-DAMP, 4-diphenylacetoxy-N-methylpiperidine methiodide]
[4]; 10^−9 mol/L to 10^−5 mol/L, after nine days
  H82 cell proliferation: significantly reduced cell proliferation
